The nature of series [1]: FIG. 10B. The conditions noted are these: for MRTINF | hr: in vivo. As for the experimental part:
Each data point represents N=2. Mice were administered 5 mg/kg, 10 mg/kg, or 15 mg/kg intravenously, 5 mg/kg intramuscularly, 10 mg/kg intraperitoneally, or 10 mg/kg subcutaneously.

The nature of series [2]: FIG. 9B. An excerpt:
Table printed on a drawing sheet, FIG. 9B
First reader's note: Plasma PK parameters derived from the concentration-time curves plotted in FIG. 9A on the same sheet.

Series [3] relates to Colo320DM cells. As to the kind of experiment: cells. As for the experimental part: Colo320DM cells were selected for this assay as the proliferation of this particular cell line is dependent on BCL9 and β-catenin. ICG001, a known Wnt/β-catenin small molecule inhibitor, was used as a positive control. The cell viability at each treatment condition was analyzed using CellTiterGlo luminescent cell viability assay (Promega) according to the manufacturer's protocols.
Following the procedure described in Example 2, the ability of WX-035 to inhibit cell growth was tested in a cell viability assay using Colo320DM cells.

Series [4] concerns Wnt/β-catenin signaling. Briefly: GeneBLAzer beta-lactamase Wnt transcription reporter assay, LEF/TCF-bla HCT-116 cells. In kind it is cell-based. The conditions noted are these: for IC50: LEF/TCF-bla HCT-116 cells. An excerpt:
ICG001 was used as a comparison. The GeneBLAzer uses CellSensor™ LEF/TCF-bla HCT-116 cells that contain a beta-lactamase (BLA) reporter gene under the control of the β-catenin/LEF/TCF response element stably integrated into HCT-116 cells, as shown in FIG. 5A. These cells constitutively express beta-lactamase and can be used to detect agonists and antagonists of the Wnt/β-catenin signaling pathway. The GeneBLAzer assay provides a ratiometric reporter response involving a two-color (blue/green) readout of stimulated and unstimulated cells.
LEF/TCF-bla HCT-116 cells were plated in assay medium (Invitrogen) on clear-bottom plates and incubated overnight at 37° C. […] Cells were next incubated with the Wnt agonist, mWnt3a (provided in the GeneBLAzer kit) for 5 hours at 37° C. Substrate mixture (containing LiveBLAzer™ B/G substrate that employs CCF4-AM, a FRET substrate for beta-lactamase) was added to the wells, and the plate was incubated for 2.5 hours at room temperature in the dark. Black-walled, clear-bottom, 384-well plates (Corning Costar) were used with scanning done with a Spectramax M2. Plates were scanned first (Scan 1 in the blue channel) with excitation filter 409/20 nm and emission filter 460/40 nm. Plates were then scanned (Scan 2 in the green channel) with excitation filer 409/20 nm and emission filter 530/30 nm.
A general note: Reporter assays use an easily measured gene product as a stand-in for the process of interest.

Series [5] relates to HCT116 cells. In kind it is cell-based. The conditions noted are these: HCT116 cells, CellTiterGlo. How it is done:
The additional polypeptides were tested in a CellTiterGlo luminescent cell viability assay (Promega). ICG001 was used as a positive control in this assay.
Background: Cellular ATP, detected with luciferase, serves as a proxy for viable cell number.

Series [6] has as its system CT26.WT cells. It counts as cell-based. As for the experimental part: One of the stabilized polypeptides generated in Example 10 was tested in a cell viability assay and compared against WX-035. WX-037 was selected for this comparison study. The cell viability assay was performed with CT26.WT cells (ATCC), following the procedures described in Example 2. Briefly, 4000 cells per well of each plate were seeded with 50 μL opti-MEM medium. Each polypeptide, WX-035 or WX-037, was diluted with 2% FBS containing opti-MEM medium using 1 μL of 200× concentrated polypeptide in 99 μL of the medium. Each stock solution was diluted for testing a wide range of concentrations. 50 μL of 2× concentrated polypeptide was added to each well of the plate. Three days after the polypeptide addition, the viability of cells was measured using CellTiterGlo assay, according to the manufacturer's protocol.

Series [7] deals with CT26 cells. Briefly: cells. The conditions noted are these: Mus musculus, CT26, read-out: IC50, CT26 cell growth. As for the experimental part: CT26 cells were grown in F-bottom plates over 5 days. […] CellTiterGlo (Promega) cell viability assay. […] Doxorubicin is a known inhibitor of cell growth and was included as a control.
The mark [8] stands for this setting: read-out: IC50, Wnt transcription.

Where “and” joins values, the source holds several entries; their conditions need not be identical. Equal values may be shown once. Read-outs that look alike come from different tables or passages of the source. Bridge positions count the residues as written; N and C are the ends. Square brackets hold non-standard residues; d marks the D form. Peptide text beside a SMILES is read from it. 2Nal = N[C@@H](Cc1ccc2ccccc2c1)C(=O)O; R5 = C=CCCC[C@@](C)(N)C(=O)O; S5 = C=CCCC[C@](C)(N)C(=O)O; βAla = NCCC(=O)O

In general, MRT refers to a mean duration of stay, worked out from the concentration-time curve.

In the case of `CC[C@H](C)[C@@H]1NC(=O)[C@@](C)(NC(=O)[C@H](CCCNC(=N)N)NC(=O)[C@H](CC(C)C)NC(=O)[C@@H](NC(=O)[C@H](CCC(N)=O)NC(=O)[C@H](CC(C)C)NC(C)=O)[C@@H](C)O)CCCC=CCCC[C@@](C)(C(=O)N[C@@H](CC(C)C)C(=O)N[C@@H](Cc2ccc3ccccc3c2)C(N)=O)NC(=O)[C@H](CCCNC(=N)N)NC(=O)[C@H](CCC(N)=O)NC1=O` (single isomer, unassigned) [WX-024 5mg/kg, IV], in series [1], the “AUCINF |” value came out at 136 µg·h/mL, the “AUClast |” value was 136 µg·h/mL, the “CL | L/hr/kg” value came out at 0.0368 L/h/kg and the “CL | mL/min/kg” value is on record as 0.613 mL/min/kg. In addition, the “VSS |” value in series [1] is reported as 0.0693 L/kg. For the same molecule, in series [1] (female, Balb/c, mouse, blood, iv), the MRT worked out at 1.88 h. Moreover, the half-life in series [1] (female, Balb/c, mouse, blood, iv, read-out: TERMINAL t1/2 | hr (converted)) is 1.99 h.

On to `CC[C@H](C)[C@@H]1NC(=O)[C@@](C)(NC(=O)[C@H](CCCNC(=N)N)NC(=O)[C@H](CC(C)C)NC(=O)[C@@H](NC(=O)[C@H](CCC(N)=O)NC(=O)[C@H](CC(C)C)NC(C)=O)[C@@H](C)O)CCCC=CCCC[C@@](C)(C(=O)N[C@@H](CC(C)C)C(=O)N[C@@H](Cc2ccc3ccccc3c2)C(N)=O)NC(=O)[C@H](CCCNC(=N)N)NC(=O)[C@H](CCC(N)=O)NC1=O` (single isomer, unassigned) [WX-024 10mg/kg, IV], for which, in series [1], the “AUCINF |” value came to 233 µg·h/mL, the “AUClast |” value is 233 µg·h/mL, the “CL | L/hr/kg” value was found to be 0.0428 L/h/kg and the “CL | mL/min/kg” value is reported as 0.713 mL/min/kg. The “VSS |” value in series [1] is reported as 0.0788 L/kg. Also, in series [1] (mouse, iv), the “MRTINF | hr” value came to 1.84 h.

With `CC[C@H](C)[C@@H]1NC(=O)[C@@](C)(NC(=O)[C@H](CCCNC(=N)N)NC(=O)[C@H](CC(C)C)NC(=O)[C@@H](NC(=O)[C@H](CCC(N)=O)NC(=O)[C@H](CC(C)C)NC(C)=O)[C@@H](C)O)CCCC=CCCC[C@@](C)(C(=O)N[C@@H](CC(C)C)C(=O)N[C@@H](Cc2ccc3ccccc3c2)C(N)=O)NC(=O)[C@H](CCCNC(=N)N)NC(=O)[C@H](CCC(N)=O)NC1=O` (single isomer, unassigned) [WX-024 15mg/kg, IV], in series [1], the “AUCINF |” value worked out at 260 µg·h/mL, the “AUClast |” value is 260 µg·h/mL, the “CL | L/hr/kg” value was 0.0576 L/h/kg and the “CL | mL/min/kg” value turned out to be 0.96 mL/min/kg. In series [1], the “VSS |” value came to 0.0946 L/kg. Also, in series [1] (mouse, iv), the “MRTINF | hr” value turned out to be 1.64 h.

For the molecule `CC[C@H](C)[C@@H]1NC(=O)[C@@](C)(NC(=O)[C@H](CCCNC(=N)N)NC(=O)[C@H](CC(C)C)NC(=O)[C@@H](NC(=O)[C@H](CCC(N)=O)NC(=O)[C@H](CC(C)C)NC(C)=O)[C@@H](C)O)CCCC=CCCC[C@@](C)(C(=O)N[C@@H](CC(C)C)C(=O)N[C@@H](Cc2ccc3ccccc3c2)C(N)=O)NC(=O)[C@H](CCCNC(=N)N)NC(=O)[C@H](CCC(N)=O)NC1=O` (single isomer, unassigned) [WX-024, LQTLRXaa1IQRXaa2L], the “T1/2 | hr” value in series [2] is 2.44 h and 2.59 h and 2.51 h.

In the case of `O=c1[nH]cc(F)c(=O)[nH]1` [5-FU, 5-fluorouracil, reference compound], in series [3] (Homo sapiens, COLO 320DM, read-out: IC50, cell viability), the IC50 was found to be 12100 nM.

In the case of `O=C1[C@H](Cc2ccc(O)cc2)N2C(=O)CCN(C(=O)NCc3ccccc3)[C@H]2CN1Cc1cccc2ccccc12` [ICG001, reference compound], the “effect on cell viability / cell growth” value in series [3] (Colo320DM cells) is recorded as “capable of inducing cell death in a dose dependent manner”. The IC50 in series [4] (setting [8]) came to 1060 nM; in series [5] (read-out: IC50, cell viability), 2170 nM.

Regarding `Cc1cc(-c2ncc(CC(=O)Nc3ccc(-c4cnccn4)cn3)cc2C)ccn1` [LGK-974, reference compound], the IC50 in series [4] (Homo sapiens, read-out: IC50, Wnt/β-catenin transcription) was > 10000 nM.

Take `CC[C@H](C)[C@@H]1NC(=O)[C@@](C)(NC(=O)[C@H](CCCNC(=N)N)NC(=O)[C@H](CC(C)C)NC(C)=O)CCCC=CCCC[C@@](C)(C(=O)N[C@@H](CC(C)C)C(N)=O)NC(=O)[C@H](CCCNC(=N)N)NC(=O)[C@H](CCC(N)=O)NC1=O` [WX-020, LRXaa1IQRXaa2L] (Ac-LR[S5]IQR[S5]L-NH2; staple 3-7): the IC50 in series [3] was found to be 12400 nM; in series [4] (setting [8]), 1580 nM. For the same molecule, in series [4] (HCT116 cells), the “inhibition of Wnt transcription among domain mapping polypeptides” value was “most effective polypeptide in inhibiting the Wnt transcription”.

For `CC(=O)N[C@]1(C)CCCC=CCCC[C@@](C)(C(=O)N[C@@H](CC(=O)O)C(=O)N[C@@H](CCCNC(=N)N)C(=O)N[C@@]2(C)CCCC=CCCC[C@@](C)(C(=O)N[C@@H](CC(=O)O)C(=O)N[C@@H](Cc3c[nH]cn3)C(=O)NCCC(=O)NCCC(N)=O)NC(=O)[C@H](CCCNC(=N)N)NC(=O)[C@H](CCC(N)=O)NC(=O)[C@H](CC(=O)O)NC2=O)NC(=O)[C@H](CCC(N)=O)NC(=O)[C@H](CC(=O)O)NC1=O` [WX-037, Xaa1DQXaa2DRXaa3DQRXaa4DH] (Ac-[R5]DQ[S5]DR[S5]DQR[S5]DH[βAla][βAla]-NH2; staple 1-4, 7-11), the IC50 in series [6] is > 32000 nM.

As for `COc1cccc2c1C(=O)c1c(O)c3c(c(O)c1C2=O)C[C@@](O)(C(=O)CO)C[C@@H]3O[C@H]1C[C@H](N)[C@H](O)[C@H](C)O1` [doxorubicin], the IC50 in series [7] was 7520 nM.

With `C#Cc1cccc(Nc2ncnc3cc(OCCOC)c(OCCOC)cc23)c1` [erlotinib], the IC50 in series [7] is > 2000 nM.

In the case of “stapled, Ac N-terminus, C-terminus 2-Nal-β-Ala-β-Ala-NH2 (Ac-LR[S5]IQR[S5]L[2Nal][βAla][βAla]-NH2; staple 3-7; SMILES CC[C@H](C)[C@@H]1NC(=O)[C@@](C)(NC(=O)[C@H](CCCNC(=N)N)NC(=O)[C@H](CC(C)C)NC(C)=O)CCCC=CCCC[C@@](C)(C(=O)N[C@@H](CC(C)C)C(=O)N[C@@H](Cc2ccc3ccccc3c2)C(=O)NCCC(=O)NCCC(N)=O)NC(=O)[C@H](CCCNC(=N)N)NC(=O)[C@H](CCC(N)=O)NC1=O) [WX-021, LRXaa1IQRXaa2L]”, the IC50 in series [4] (setting [8]) was determined as 764 nM. In series [5], the “inhibition of cell growth” value is “particularly effective”.

These data come from US12264185B2, “Stabilized BCL9 peptides for treatment of aberrant Wnt signaling” (WntRx Pharmaceuticals Inc., priority 2015, dated 2025).
